# Reference: patent US8535931B2, “Non-photosynthetic micro-organisms enriched with organic selenium from seleno-hydroxyacid compounds and applications thereof in the field of nutrition, cosmetics and pharmacueuticals” (priority 2008, dated 2013)
# Where two headings read alike, the source gives them in different places.
# Columns and labels:
# [1] = supplementation of the diet; cited from earlier work
# [2] = test system: Lactobacillus paracasei 3052-E000; format: cell-based; conditions: for inhibitor effect on the growth or reduction in the biomass production yield: up to 20 mg/L (in selenium equivalent); for reduction in the biomass production yield: 48 h
# Method: In this experiment, the growth characteristics of the bacterium Lactobacillus paracasei were measured in the presence of different concentrations of selenium in the form of sodium selenite, selenomethionine, 2-hydroxy-4-methylseleno-butanoic acid and compared with the growth characteristics in the absence of additives.
# The pre-culture of the strain Lactobacillus paracasei 3052-E000 is carried out in liquid MRS medium, at 42° C., without agitation for 24 h. The culture of the strain Lactobacillus paracasei 3052-E000 was carried out from an inoculum (1.10^7 UFC/ml) of the above pre-culture in 100 mL of MRS medium, at pH=6.4 and at a temperature of 42° C. (without agitation).
# The cultures were monitored by absorbance measurements at 550 nm and CFU counting carried out on MRS plate.
# The concentrations tested for the addition of selenium selenite are 0.5 mg/L, 2 mg/L, 10 mg/L and 20 mg/L in selenium equivalent, i.e. respectively 1.11 mg/L, 4.44 mg/L, 22.22 mg/L and 44.44 mg/L of sodium selenite. The graph of FIG. 4 makes it possible to visualise the growth of the strain Lactobacillus paracasei 3052-E000 in the presence of sodium selenite.
# The concentrations tested for the addition of selenomethionine are 0.5 mg/L, 2 mg/L, 10 mg/L and 20 mg/L in selenium equivalent, i.e. respectively 1.25 mg/L, 5 mg/L, 25 mg/L and 50 mg/L of selenomethionine.
# (§1) The concentrations tested for the addition of 2-hydroxy-4-methylseleno-butanoic acid are 0.5 mg/L, 2 mg/L, 10 mg/L and 20 mg/L in selenium equivalent, i.e. respectively 1.25 mg/L, 5 mg/L, 25 mg/L and 50 mg/L of 2-hydroxy-4-methylseleno-butanoic acid (THD-177, Tetrahedron, France, CAS: 873660-49-2).
# In order to complete the study of the impact of the addition of 2-hydroxy-4-methylseleno-butanoic acid, at higher values, concentrations of 40 and 60 mg/L were tested under the same conditions as previously.
# [3] = test system: Saccharomyces cerevisiae 3053-E000; format: cell-based; conditions: for yield of biomass obtained (change): 48 h; for concentration from which an effect on growth / biomass yield begins to show: YPG medium, pH 4, 37° C.
# Method: In the experiments described, the growth characteristics of the yeast Saccharomyces cerevisiae 3053 E000 were measured in the presence of different concentrations of selenium in the form of sodium selenite, selenomethionine, or 2-hydroxy-4-methylseleno-butanoic acid and compared to the growth characteristics in the absence of additives (control). The pre-culture of the strain Saccharomyces cerevisiae 3053-E000 is carried out in liquid YPG medium, at 37° C., under orbital agitation (250 rpm) for 24 h.
# The culture is formed from an inoculum (1.10^6 UFC/ml) of the pre-culture described previously in 100 mL of YPG medium, at pH=4 at a temperature of 37° C. under agitation (250 rpm) and according to the following conditions:
# The cultures of Saccharomyces cerevisiae 3053-E000 were monitored by absorbance measurements at 550 nm and by CPU counting on YPG gelose plates.
# The concentrations tested for the addition of selenium selenite are 0.5 mg/L, 10 mg/L and 20 mg/L in selenium equivalent, i.e. respectively: 1.1 mg/L, 22.22 mg/L and 44.44 mg/L of sodium selenite.
# The concentrations tested for the addition of selenomethionine are 0.5 mg/L, 2 mg/L, 10 mg/L and 20 mg/L in selenium equivalent, i.e. respectively 1.25 mg/L, 5 mg/L, 25 mg/L and 50 mg/L of selenomethionine
# as §1
# [4] = 10 mg/L (in selenium equivalent)
# [5] = 20 mg/L (in selenium equivalent)
# [6] = 10 and 20 mg/L (in selenium equivalent)
compound,measurement,setting,value
C[Se]CC[C@H](N)C(=O)O [L(+)-selenomethionine],toxicity compared with an intake in the form of sodium selenite,[1],much less toxic
"C[Se]CCC(O)C(=O)O (stereo not shown) [THD 177, 2-hydroxy-4-methylseleno-butanoic acid]",inhibitor effect on the growth and the biomass yield,[2]; 40 and 60 mg/L,no inhibitor effect was observed
same,inhibitor effect on the growth or reduction in the biomass production yield,[2],does not show an inhibitor effect
same,viability reduced by,[3]; [4],36%
same,yield of biomass obtained (change),[3]; [4],−15%
same,biomass yield reduced by,[3]; [5],36%
same,viability reduced by,[3]; [5],50%
same,concentration from which an effect on growth / biomass yield begins to show,[3],10 mg/L (in selenium equivalent)
C[Se]CC[C@H](N)C(=O)O [selenomethionine],inhibitor effect on the growth or reduction in the biomass production yield,[2],does not show an inhibitor effect
same,yield of biomass obtained (change),[3]; 2 mg/L (in selenium equivalent),−29%
same,yield of biomass obtained (change),[3]; [4],−50%
same,concentration from which an effect on growth / biomass yield begins to show,[3],2 mg/L (in selenium equivalent)
O=[Se](O)O [sodium selenite],reduction in the biomass production yield,[2]; 0.5 mg/L (in selenium equivalent),25%
same,toxicity on Lactobacillus paracasei,[2]; [6],shows a toxicity
same,reduction in the biomass production yield,[2]; [6],90%
same,concentration from which an inhibitor effect on growth begins to show,"[2]; MRS medium, pH 6.4, 42° C.",0.5 mg/L (in selenium equivalent)
same,yield of biomass obtained (change),[3]; [4],−50%
same,toxicity for Saccharomyces cerevisiae,[3]; [5],very toxic
same,concentration from which an effect on growth / biomass yield begins to show,[3],10 mg/L (in selenium equivalent)
